From US5919897A (priority 1995, dated 1999)
Where no end group is shown, it is not given here. [ ]: non-standard residue; d: D form.

What was measured:
μ receptor = target: T1, μ receptor (Homo sapiens, UniProt P35372); assay: Adenylyl cyclase assay using human SH-SY5Y neuroblastoma cell line membranes; assay type: biochemical
T1 construct: An adenylyl cyclase assay using human SH-SY5Y neuroblastoma cell line membranes; endogenous in cells; host or cells: human SH-SY5Y neuroblastoma cells, differentiated with retinoic acid; membranes
T1 sequence (P35372 whole entry): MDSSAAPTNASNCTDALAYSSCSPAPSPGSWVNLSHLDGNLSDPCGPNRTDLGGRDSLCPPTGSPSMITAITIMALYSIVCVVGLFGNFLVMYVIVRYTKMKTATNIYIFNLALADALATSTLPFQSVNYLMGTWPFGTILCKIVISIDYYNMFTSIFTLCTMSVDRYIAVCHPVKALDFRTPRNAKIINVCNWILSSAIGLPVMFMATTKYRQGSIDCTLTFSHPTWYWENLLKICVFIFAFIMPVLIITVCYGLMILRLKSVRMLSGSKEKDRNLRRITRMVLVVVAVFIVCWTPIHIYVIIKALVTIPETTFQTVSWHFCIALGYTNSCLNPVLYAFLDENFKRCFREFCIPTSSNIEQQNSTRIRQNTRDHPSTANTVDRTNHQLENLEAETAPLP
Experimental: An adenylyl cyclase assay using human SH-SY5Y neuroblastoma cell line membranes was used to rapidly determine the opioid agonists or antagonist properties of individual peptides.
After the initial centrifugation at 200×g for 15 min at 4° C., the cells were resuspended in sucrose buffer (0.32M sucrose, 40 mM HEPES, 2 mM EDTA, pH 7.6). Cells were centrifuged again at 200×g, then homogenized in sucrose buffer with five strokes of a Dounce Homogenizer (Wheaton Instruments, Millville, N.J.). Membranes were centrifuged at 22000×g for 20 min at 4° C., then resuspended in sucrose buffer. […] SH-SY5Y membranes at a protein concentration of 1-4 mg/ml were stored at -80° C.
SH-SY5Y membranes were incubated in a final volume of 100 μl of 40 mM HEPES, pH 7.7, containing 15 units of creatine phosphokinase, 20 mM phosphocreatine, 1 mM 1,10-o-phenanthroline, 60 μM isobutylmethylxanthine (IBMX), 50 μM ATP, 50 μM GTP, 3 mM MgCl2 and 100 mM NaCl. Each of the agonists and antagonists tested were included at final concentrations of 100 μM and 500 μM, respectively. The reaction was initiated by the addition of 36 μg of membrane protein. After 15 min at 30° C., the reaction was stopped by the addition of 100μl of cold 4.5% perchloric acid. The samples were neutralized by the addition 40 μl of cold 30% potassium bicarbonate. Finally, the membranes were centrifuged at 12000×g for 4 min at 4° C. in a microcentrifuge; The amount of cyclic AMP present in 100μl of the supernatant, equivalent to the cyclic AMP produced by 15 μg of membrane protein, was determined using a cyclic AMP kit (Diagnostic Products, Los Angeles, Calif.). […] [^3 H]-cyclic AMP, 0.9 μCi, was added into 6 ml of H2 O, and 100 μl of the diluted [^3 H]-cyclic AMP was added to the assay tubes. The final supernatants were counted in 10 ml of Ecolite (+) scintillation fluid (ICN Pharmaceuticals, Covina, Calif.).

MU RECEPTOR = assay: Mu receptor agonist or antagonist activity, by either the adenylyl cyclase assay or the GPI assay (Table 13)

Row | Compound | % Basal Control (cyclic AMP) (μ receptor; DAMGO 1 μM alone, ANTAGONISTS section) | % Basal Control +ICI 174,864 (μ receptor; DAMGO 1 μM, ANTAGONISTS section) | % Basal Control +ICI 174,864 (μ receptor; agonist 100 μM plus ICI 174,864 (antagonists 500 μM)) | % Basal Control +Naloxone (μ receptor; agonist 100 μM plus naloxone (antagonists 500 μM)) | % Basal Control (cyclic AMP) (μ receptor; agonist alone, 100 μM, SH-SY5Y membranes) | AGONIST OR ANTAGONIST (MU RECEPTOR)
1 | C[C@@H](NC(=O)[C@@H](N)Cc1ccc(O)cc1)C(=O)NCC(=O)N(C)[C@@H](Cc1ccccc1)C(=O)NCCO [DAMGO, [D-Ala^2,MePhe^4, Gly-ol^5]enkephalin] | 61 ± 5% | 95 ± 3% | 28 ± 3% | 77 ± 8% | 34 ± 6% | 
2 | [dI][dM][dT][dW]G[dP]-NH2 [SEQ ID NO. 130] |  |  |  |  |  | Agonist
